Data as given in US11773109B2, “Composition for hardening soft tissue” (The Catholic University of Korea Industry—Academic …, priority 2016, dated 2023).

Assays:
pancreas of mice [1] = test: Tension (suture-holding capacity) of the mouse pancreas after treatment, Newton dynamometer; format: in vivo; settings: mouse pancreas treated with 1 mM of compound; for change in the tension of the pancreas compared to the control: compared to control (PBS / untreated), result in words
Method: Specifically, it means a force which occurs in an organ in response to an external force exerted by stretching or pulling action. The measurement of the tension according to the present invention is performed using a dynamometer. More specifically, the tension is determined by measuring suture-holding capacity using a Newton dynamometer. At this time, the tension is calculated by adding the weight of the tissue.
(§1) More specifically, three mice were treated with 1 mM of each of the antibiotics shown above, and three mice were treated with phosphate buffered saline (PBS) as a control.
(2) Measurement of Tensile
The tension of the pancreas was measured using a dynamometer. Specifically, a pancreatic fragment having a size of 1×1×1.5 cm was prepared, and then silk 4-0 suture was passed through the tissue to form a knob, and suture-holding capacity was measured using a Newton dynamometer. At this time, the tension was calculated by adding the weight of the tissue.

pancreas of mice [2] = test: Hardness (elastic modulus) of the mouse pancreas after treatment, hardness meter (Venustron); format: in vivo; settings: mouse pancreas treated with 1 mM of compound; compared to control (PBS / untreated); result in words
Method: The measurement of the hardness according to the present invention is performed using a hardness meter, and measurement of the hardness of the pancreas is performed by measuring elastic modulus (EM) based on the Hooke's law and the Hertz's contact stress theory. The EM is a measure of the stiffness of an elastic material, and is expressed as the ratio of “the stress along the axis” and “the total strain along the axis within the range of the stress” by the Hooke's law.
as §1
(1) Measurement of Hardness
In order to measure the resistance of the pancreas using a hardness meter, the elastic modulus (EM) of the dissected pancreas was measured using Venustron (Axiom, Koriyama, Japan) based on the Hooke's law and the Hertz's contract stress theory, and the resistance of the pancreas was calculated using the following equation: […]
(F, force; v, Poisson's ratio; t, variant of compression; r, the diameter of a rigid spherical probe that presses an object vertically)

| SMILES | change in the tension of the pancreas compared to the control (pancreas of mice [1]) | change in the hardness of the pancreas compared to the control (pancreas of mice [2]) | response vs control in vivo at 1000 µM (pancreas of mice [1]; fold of control, read-out: increase of the tension of the pancreas compared to the control) |
| --- | --- | --- | --- |
| CC(C)(C)OC(=O)CCOC(=O)[C@@H]1N2C(=O)[C@@H](NC(=O)Cc3ccccc3)[C@H]2SC1(C)C [KRM-60077, 3-(tert-butoxy)-3-oxopropyl (2S,5R,6R)-3,3-dimethyl-7-oxo-6-(2-phenylacetamido)-4-thia-1-azabicyclo[3.2.0]heptane-2-carboxylate] | increased both the hardness and tension of the pancreas to significant levels | increased both the hardness and tension of the pancreas to significant levels | – |
| C=CCOC(=O)[C@@H]1N2C(=O)[C@@H](NC(=O)Cc3ccccc3)[C@H]2SC1(C)C [KRM-60028, Allyl (2S,5R,6R)-3,3-dimethyl-7-oxo-6-(2-phenylacetamido)-4-thia-1-azabicyclo[3.2.0]heptane-2-carboxylate] | both the hardness and tension of the pancreas increased | both the hardness and tension of the pancreas increased | – |
| O=C(O)c1cnc2cc(Cl)ccc2c1O [KRP-00001, 7-chloro-4-hydroxy-3-quinolinecarboxylic acid] | increased both the hardness and tension | increased both the hardness and tension | ≥ 150% |
| CCOCCOCCOC(=O)[C@@H]1N2C(=O)[C@@H](NC(=O)Cc3ccccc3)[C@H]2SC1(C)C [KRM-60080, 2-(2-ethoxyethoxy)ethyl (2S,5R,6R)-3,3-dimethyl-7-oxo-6-(2-phenylacetamido)-4-thia-1-azabicyclo[3.2.0]heptane-2-carboxylate] | increased both the hardness and tension of the pancreas to significant levels | increased both the hardness and tension of the pancreas to significant levels | – |
